Values after ≈ are worked out from the molar mass of the structure shown.
How the values were obtained:
Candida glabrata = assay: Determination of fungal susceptibility (MIC); type: cell-based; details: CYG medium, 2 days at 37° C., growth to 35% of control or less
Experimental: (§1) A panel of Candida isolates plus single isolates of the dermatophytes Microsporum canis, Trichophyton rubrum and T. mentagrophytes; Aspergillus fumigates, and Cryptococcus neoformans were used to evaluate the activity of the test compounds in vitro. Inocula were prepared as broth cultures (yeasts) or as suspensions of fungal material made from agar slope cultures (moulds). The test compounds were pipetted from DMSO stock solution into water to provide a series of 10-fold dilutions. The fungal inocula were suspended in the growth medium CYG (F. C. Odds, Journal of Clinical Microbiology, 29, (2735-2740, 1991) at approximately 50,000 colony-forming units (CFU) per ml and added to the aqueous test drugs. The cultures were set up in the 96 wells of plastic microdilution plates and they were incubated for 2 days at 37° C. (Candida spp.) or for 5 days at 30° C. (other fungi). Growth in the microcultures was measured by their optical density (OD) measured at a wavelength of 405 nm. The OD for cultures with test compounds was calculated as a percentage of the control, drug-free OD. Inhibition of growth to 35% of control or less was recorded as significant inhibition.
(§2) Minimal inhibitory concentration (MICs; in 10^−6 M) of intermediate 2 as the major metabolite and some of the compounds of formula (I) for Candida glabrata, Candida krusel, Candida parapsilosis, Candida albicans, Candida kefyr, Candida tropicalis, Microsporum canis, Trichophyton rubrum, Trichophyton mentagrophytes, Cryptococcus neoformans, Aspergillus fumigatus are listed in table 8.

[1] = tested on: Trichophyton mentagrophytes; assay: Determination of fungal susceptibility (MIC); type: cell-based; details: CYG medium, 5 days at 30° C., growth to 35% of control or less
Experimental: as §1, §2

Trichophyton rubrum = assay: Determination of fungal susceptibility (MIC); type: cell-based; details: CYG medium, 5 days at 30° C., growth to 35% of control or less
Experimental: as §1, §2

Candida krusei = assay: Determination of fungal susceptibility (MIC); type: cell-based; details: CYG medium, 2 days at 37° C., growth to 35% of control or less
Experimental: as §1, §2

Cryptococcus neoformans = assay: Determination of fungal susceptibility (MIC); type: cell-based; details: CYG medium, 5 days at 30° C., growth to 35% of control or less
Experimental: as §1, §2

Candida kefyr = assay: Determination of fungal susceptibility (MIC); type: cell-based; details: CYG medium, 2 days at 37° C., growth to 35% of control or less
Experimental: as §1, §2

Candida parapsilosis = assay: Determination of fungal susceptibility (MIC); type: cell-based; details: CYG medium, 2 days at 37° C., growth to 35% of control or less
Experimental: as §1, §2

Candida albicans [2] = assay: Determination of fungal susceptibility (MIC); type: cell-based; details: CYG medium, 2 days at 37° C., growth to 35% of control or less
Experimental: as §1, §2

Candida tropicalis = assay: Determination of fungal susceptibility (MIC); type: cell-based; details: CYG medium, 2 days at 37° C., growth to 35% of control or less
Experimental: as §1, §2

Aspergillus fumigatus [3] = assay: Determination of fungal susceptibility (MIC); type: cell-based; details: CYG medium, 5 days at 30° C., growth to 35% of control or less
Experimental: as §1, §2

Microsporum canis = assay: Determination of fungal susceptibility (MIC); type: cell-based; details: CYG medium, 5 days at 30° C., growth to 35% of control or less
Experimental: as §1, §2

Aspergillus fumigatus [4] = assay: Disseminated aspergillosis in guinea-pigs; type: in vivo; details: for CFU/g (liver): culture-positive livers post mortem; for % neg (total percentage culture-negative deep tissues): liver, spleen, kidney, lung and brain
Experimental: (§3) Specific pathogen-free (SPF) guinea-pigs (weighing 400-500 g) were used in all experiments. A catheter was placed into the left jugular vein of the animals that were treated by intravenous infusion, the vein was ligated, and the catheter was connected to a microprocessor-controlled infusion pump. The animals were infected with Aspergillus fumigatus (4,000 CFU/g body weight) or with Candida albicans (40,000 CFU/g body weight) either via the lateral vein of the penis or via the implanted catheter. Intravenous treatments (5 mg/kg/day) began 1 hour after infection. The test formulations were then administered on subsequent days as two, 1 hour infusions daily, separated by a period of 5 hours, for a total of 19 infusions or 9.5 days. Oral treatments with the test compounds (5 mg/kg/day) begun 1 hour after infection and were repeated twice daily up to the tenth day after infection (a total of 19 treatments. For each group of tested animals (number of tested animals per group given in column “N”), the mean survival time (MST) in days was recorded as well as the % survivors (% surv). Animals of each group which died during the experiment and those that survived the experiment and were killed, were investigated for counts of Aspergillus fumigatus and Candida albicans in deep tissue (liver, spleen, kidney, lung and brain) post mortem. The remaining CFU/g in the culture-positive livers was measured and expressed in table 9 (after intravenous treatment) and table 10 (after oral treatment) as mean log10 CFU/g. The columns “%neg” in tables 9 and 10 express the total percentage culture-negative deep tissues after the treatment.

[5] = Solubility (excess compound shaken 1 day at room temperature, HPLC); type: physicochemical; details: thermodynamic from solid
Experimental: An excess of compound was added to the solvent (the type of solvent is specified in table 6) The mixture was shaken during 1 day at room temperature. The precipitate was filtered off. The concentration of the compound was measured via HPLC and is shown in the column “Solubility”.

[6] = Chemical stability (open glass jar, 40° C., 75% relative humidity); type: physicochemical; details: 50 mg, after one week
Experimental: After one week, the amount of test compound remaining was determined.

Candida albicans [7] = assay: Disseminated candidosis in guinea-pigs; type: in vivo; details: for CFU/g (liver): culture-positive livers post mortem; for % neg (total percentage culture-negative deep tissues): liver, spleen, kidney, lung and brain
Experimental: as §3

[8] = i.v. treatment 5 mg/kg/day, 19 infusions, 9.5 days
[9] = oral treatment 5 mg/kg/day, twice daily, 19 treatments

In the case of `C[C@H](OC(=O)[C@@H](N)Cc1ccccc1)[C@H](C)n1ncn(-c2ccc(N3CCN(c4ccc(OC[C@@H]5CO[C@@](Cn6cncn6)(c6ccc(F)cc6F)O5)cc4)CC3)cc2)c1=O` (relative stereo) [Compound 23, [2S-[2α,4α[(R*,R*)]]]-2-[4-[4-[4-[4-[[2-(2,4-difluorophenyl)-2-(1H-1,2,4-triazol-1-ylmethyl)-1,3-dioxolan-4-yl]methoxy]-phenyl]-1-piperazinyl]-phenyl]-4,5-dihydro-5-oxo-1H-1,2,4-triazol-1-yl]-1-methylpropyl L-phenylalanine], the MIC (Candida glabrata) is reported as 10 10^−6 M, the MIC [1] is reported as 1 10^−6 M and the MIC (Trichophyton rubrum) is reported as <0.1 10^−6 M. The MIC (Candida krusei) was 1 10^−6 M, the MIC (Cryptococcus neoformans) was 1 10^−6 M and the MIC (Candida kefyr) was <0.1 10^−6 M. For the same molecule, the MIC (Candida parapsilosis) was <0.1 10^−6 M, the MIC (Candida albicans [2]) was <0.1 10^−6 M and the MIC (Candida tropicalis) was <0.1 10^−6 M. The MIC (Aspergillus fumigatus [3]) was 1 10^−6 M, the MIC (Microsporum canis) was <1 10^−6 M and the “CFU/g (liver)” value (Aspergillus fumigatus [4]; i.v. treatment 5 mg/kg/day) was 3.6 mean log10 CFU/g. For the same molecule, the “CFU/g (liver)” value (Aspergillus fumigatus [4]; oral treatment 5 mg/kg/day) was 3.0 mean log10 CFU/g, the “% surv (% survivors)” value (Aspergillus fumigatus [4]; [8]) was 83.3% and the “MST (mean survival time)” value (Aspergillus fumigatus [4]; [8]) was 9.2 days. The “% neg (total percentage culture-negative deep tissues)” value (Aspergillus fumigatus [4]; i.v. treatment 5 mg/kg/day) was 71%, the “% neg (total percentage culture-negative deep tissues)” value (Aspergillus fumigatus [4]; oral treatment 5 mg/kg/day) was 55% and the “% surv (% survivors)” value (Aspergillus fumigatus [4]; [9]) was 30%. The “MST (mean survival time)” value (Aspergillus fumigatus [4]; [9]) was 7.8 days, the solubility at 1 day ([5]; aqueous buffer, solvent 0.0001M HCl, final pH in column pH of the same row (3.17-6.68)) was 20 µg/mL (≈ 23.9 µM) and the solubility at 1 day ([5]; simulated gastric fluid, solvent 0.1M HCl, final pH in column pH of the same row (1.23-1.55)) was greater than 5560 µg/mL. The “Stability (amount of test compound remaining)” value [6] was 99.7%, the “CFU/g (liver)” value (Candida albicans [7]; i.v. treatment 5 mg/kg/day) was 0 mean log10 CFU/g and the “CFU/g (liver)” value (Candida albicans [7]; oral treatment 5 mg/kg/day) was 0 mean log10 CFU/g. The “% surv (% survivors)” value (Candida albicans [7]; [8]) was 83.3%, the “MST (mean survival time)” value (Candida albicans [7]; [8]) was 9.8 days and the “% neg (total percentage culture-negative deep tissues)” value (Candida albicans [7]; i.v. treatment 5 mg/kg/day) was 79%. For the same molecule, the “% neg (total percentage culture-negative deep tissues)” value (Candida albicans [7]; oral treatment 5 mg/kg/day) was 73%, the “% surv (% survivors)” value (Candida albicans [7]; [9]) was 100% and the “MST (mean survival time)” value (Candida albicans [7]; [9]) was 10 days.
